Experimental data as given in patent US20220133847A1, “COMPOSITIONS AND METHODS FOR ALLEVIATING PAIN” (priority 2020, published 2022).
Ends that are not written are not given here.

Legend:
T-type Ca2+ channels = conditions: patients; cited from earlier work
[1] = Experimental: FIG. 5. […] Animals were sacrificed, and tissues were harvested four hours post-injection.
A His-tagging method was used to assess the brain-penetrance of peptide therapeutics (Westlund et al., 2021, Neurobiol Pain 10:100067). Briefly, a His-tagged TAT-C3P peptide with the sequence […] (SEQ ID NO: 3) was ordered from Genscript. Protein content was assessed with Western blots using standard methods. Briefly, the sample protein was denatured, followed by gel electrophoresis to separate proteins by molecular weight. An anti-His-tag monoclonal antibody (C-terminal A01857, GenScript) that binds to the His-tag conjugated to the TAT-C3P peptide or anti-β-actin antibody (ab8226, Abcam, Cambridge, United Kingdom) was applied to the electrophoresis membrane. After washing off the antibody, specific secondary antibodies were added which recognized and bound to the primary antibodies. The secondary antibody was visualized through immunofluorescence probe attached to the secondary antibody, allowing indirect detection, validation, and semi-quantitative assessment of the specific target protein.

[2] = in vivo
Cav3.3 = biological target: T1, Cav3.3 (Mus musculus, UniProt E9Q7P2); test: Western blot of Cav3.3 protein levels in whole trigeminal ganglia lysates after peptide injection; format: in vivo; conditions: FRICT-ION mice, whole TG lysates, four hours post injection, normalized to actin
T1 construct: Western blot analysis of Cav3.3 protein levels from whole TG lysates was performed; from tissue; host or cells: mouse trigeminal ganglia (FRICT-ION model)
T1 sequence (E9Q7P2 1-2199): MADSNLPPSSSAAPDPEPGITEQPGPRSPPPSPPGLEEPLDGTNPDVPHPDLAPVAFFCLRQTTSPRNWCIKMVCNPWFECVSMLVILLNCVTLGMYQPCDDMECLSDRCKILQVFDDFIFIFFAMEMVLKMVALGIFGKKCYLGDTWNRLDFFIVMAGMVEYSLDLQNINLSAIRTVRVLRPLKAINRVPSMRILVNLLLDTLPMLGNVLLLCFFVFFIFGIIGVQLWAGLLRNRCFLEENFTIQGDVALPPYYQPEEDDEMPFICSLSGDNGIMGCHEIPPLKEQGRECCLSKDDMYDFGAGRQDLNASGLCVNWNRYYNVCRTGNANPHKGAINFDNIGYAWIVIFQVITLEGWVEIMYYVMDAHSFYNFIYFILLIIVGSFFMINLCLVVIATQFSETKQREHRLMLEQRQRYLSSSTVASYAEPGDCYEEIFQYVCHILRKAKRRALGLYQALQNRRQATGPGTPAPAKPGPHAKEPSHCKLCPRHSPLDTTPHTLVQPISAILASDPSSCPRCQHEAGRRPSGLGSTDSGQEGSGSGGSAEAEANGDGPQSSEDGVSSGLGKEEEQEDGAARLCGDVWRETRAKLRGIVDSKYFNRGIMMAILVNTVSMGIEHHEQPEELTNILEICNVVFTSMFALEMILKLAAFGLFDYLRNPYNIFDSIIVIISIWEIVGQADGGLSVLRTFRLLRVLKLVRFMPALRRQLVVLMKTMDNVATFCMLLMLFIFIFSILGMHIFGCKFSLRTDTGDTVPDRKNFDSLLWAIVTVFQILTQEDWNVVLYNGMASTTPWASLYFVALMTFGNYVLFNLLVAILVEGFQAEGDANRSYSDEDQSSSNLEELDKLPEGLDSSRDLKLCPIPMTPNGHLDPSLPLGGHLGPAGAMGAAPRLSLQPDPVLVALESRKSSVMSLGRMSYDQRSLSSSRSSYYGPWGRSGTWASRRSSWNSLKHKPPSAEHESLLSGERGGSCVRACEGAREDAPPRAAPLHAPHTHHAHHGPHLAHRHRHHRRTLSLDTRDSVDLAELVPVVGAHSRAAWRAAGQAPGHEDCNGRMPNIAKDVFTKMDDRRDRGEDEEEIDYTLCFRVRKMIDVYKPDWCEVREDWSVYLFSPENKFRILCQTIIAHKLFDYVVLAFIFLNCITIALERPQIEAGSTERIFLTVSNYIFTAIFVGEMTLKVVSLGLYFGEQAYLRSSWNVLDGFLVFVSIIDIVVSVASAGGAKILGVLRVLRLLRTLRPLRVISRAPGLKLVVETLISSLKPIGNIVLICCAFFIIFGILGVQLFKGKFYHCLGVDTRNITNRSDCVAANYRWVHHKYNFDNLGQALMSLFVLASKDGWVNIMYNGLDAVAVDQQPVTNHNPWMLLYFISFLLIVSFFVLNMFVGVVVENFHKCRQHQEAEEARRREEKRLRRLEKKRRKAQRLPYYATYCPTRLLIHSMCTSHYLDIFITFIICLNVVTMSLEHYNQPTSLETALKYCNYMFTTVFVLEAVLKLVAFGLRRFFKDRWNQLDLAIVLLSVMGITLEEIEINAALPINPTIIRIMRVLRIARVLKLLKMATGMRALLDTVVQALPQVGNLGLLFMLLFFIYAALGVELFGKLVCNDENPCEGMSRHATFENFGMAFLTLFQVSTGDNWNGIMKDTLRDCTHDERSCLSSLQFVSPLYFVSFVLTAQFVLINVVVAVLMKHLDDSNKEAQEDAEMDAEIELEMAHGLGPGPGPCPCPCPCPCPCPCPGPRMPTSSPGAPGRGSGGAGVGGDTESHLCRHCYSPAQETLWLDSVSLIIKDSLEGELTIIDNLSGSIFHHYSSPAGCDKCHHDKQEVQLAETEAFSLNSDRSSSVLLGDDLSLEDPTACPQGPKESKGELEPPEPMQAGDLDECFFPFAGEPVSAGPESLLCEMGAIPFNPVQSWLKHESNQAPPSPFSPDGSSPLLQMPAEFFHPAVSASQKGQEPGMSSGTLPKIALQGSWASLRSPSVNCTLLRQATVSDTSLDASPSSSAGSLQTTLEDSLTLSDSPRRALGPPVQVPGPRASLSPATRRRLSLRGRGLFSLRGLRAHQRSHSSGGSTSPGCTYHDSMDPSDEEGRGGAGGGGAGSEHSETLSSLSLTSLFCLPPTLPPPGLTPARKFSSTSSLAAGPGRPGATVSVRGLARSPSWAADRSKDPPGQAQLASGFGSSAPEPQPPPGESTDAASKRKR
Description: Twelve male and female mice (8-10 weeks old, six mice per sex) were subject to the FRICT-ION model of trigeminal neuropathic pain. Three mice of each sex were administered TAT-C3P peptide (SEQ ID NO:1) and the remaining mice were administered TAT-C3D (SEQ ID NO:2) following the methods described above. Four hours post injection, mice were euthanized with pentobarbital (50 mg/kg) and both ipsilateral and contralateral trigeminal ganglia (TG) were removed. TG were washed immediately in PBS and stored at −80° C.
The TG for each of the four groups were pooled together (n=3) for protein extraction and homogenized using a pestle and 500 μL of 1×RIPA buffer (Thermo Fisher Scientific, Inc., Waltham, Mass.). Samples were put on a rocking shaker for two hours and then centrifuged, and supernatant removed to a new tube. Samples were assayed for total protein. […] Samples were then prepared for electrophoresis by mixing with 2× sample buffer and boiling for five minutes at 100° C. for denaturation.
Proteins were loaded on a 12% Tris-Glycine polyacrylamide gradient gel (Bio-Rad Laboratories, Inc., Hercules, Calif.) and transferred to a PVDF membrane (MilliporeSigma, Burlington, Mass.). […] Signal intensity was analyzed using ImageJ (Schneider et al., Nature Methods 9:671-675 (2012)) for comparisons.
Male and female mice were analyzed separately. […]

Cav3.3 channels = Cav3.3 channels (Homo sapiens, UniProt Q9P0X4); conditions: cited from earlier work
Cav3.3 channels, sequence (Q9P0X4 whole entry): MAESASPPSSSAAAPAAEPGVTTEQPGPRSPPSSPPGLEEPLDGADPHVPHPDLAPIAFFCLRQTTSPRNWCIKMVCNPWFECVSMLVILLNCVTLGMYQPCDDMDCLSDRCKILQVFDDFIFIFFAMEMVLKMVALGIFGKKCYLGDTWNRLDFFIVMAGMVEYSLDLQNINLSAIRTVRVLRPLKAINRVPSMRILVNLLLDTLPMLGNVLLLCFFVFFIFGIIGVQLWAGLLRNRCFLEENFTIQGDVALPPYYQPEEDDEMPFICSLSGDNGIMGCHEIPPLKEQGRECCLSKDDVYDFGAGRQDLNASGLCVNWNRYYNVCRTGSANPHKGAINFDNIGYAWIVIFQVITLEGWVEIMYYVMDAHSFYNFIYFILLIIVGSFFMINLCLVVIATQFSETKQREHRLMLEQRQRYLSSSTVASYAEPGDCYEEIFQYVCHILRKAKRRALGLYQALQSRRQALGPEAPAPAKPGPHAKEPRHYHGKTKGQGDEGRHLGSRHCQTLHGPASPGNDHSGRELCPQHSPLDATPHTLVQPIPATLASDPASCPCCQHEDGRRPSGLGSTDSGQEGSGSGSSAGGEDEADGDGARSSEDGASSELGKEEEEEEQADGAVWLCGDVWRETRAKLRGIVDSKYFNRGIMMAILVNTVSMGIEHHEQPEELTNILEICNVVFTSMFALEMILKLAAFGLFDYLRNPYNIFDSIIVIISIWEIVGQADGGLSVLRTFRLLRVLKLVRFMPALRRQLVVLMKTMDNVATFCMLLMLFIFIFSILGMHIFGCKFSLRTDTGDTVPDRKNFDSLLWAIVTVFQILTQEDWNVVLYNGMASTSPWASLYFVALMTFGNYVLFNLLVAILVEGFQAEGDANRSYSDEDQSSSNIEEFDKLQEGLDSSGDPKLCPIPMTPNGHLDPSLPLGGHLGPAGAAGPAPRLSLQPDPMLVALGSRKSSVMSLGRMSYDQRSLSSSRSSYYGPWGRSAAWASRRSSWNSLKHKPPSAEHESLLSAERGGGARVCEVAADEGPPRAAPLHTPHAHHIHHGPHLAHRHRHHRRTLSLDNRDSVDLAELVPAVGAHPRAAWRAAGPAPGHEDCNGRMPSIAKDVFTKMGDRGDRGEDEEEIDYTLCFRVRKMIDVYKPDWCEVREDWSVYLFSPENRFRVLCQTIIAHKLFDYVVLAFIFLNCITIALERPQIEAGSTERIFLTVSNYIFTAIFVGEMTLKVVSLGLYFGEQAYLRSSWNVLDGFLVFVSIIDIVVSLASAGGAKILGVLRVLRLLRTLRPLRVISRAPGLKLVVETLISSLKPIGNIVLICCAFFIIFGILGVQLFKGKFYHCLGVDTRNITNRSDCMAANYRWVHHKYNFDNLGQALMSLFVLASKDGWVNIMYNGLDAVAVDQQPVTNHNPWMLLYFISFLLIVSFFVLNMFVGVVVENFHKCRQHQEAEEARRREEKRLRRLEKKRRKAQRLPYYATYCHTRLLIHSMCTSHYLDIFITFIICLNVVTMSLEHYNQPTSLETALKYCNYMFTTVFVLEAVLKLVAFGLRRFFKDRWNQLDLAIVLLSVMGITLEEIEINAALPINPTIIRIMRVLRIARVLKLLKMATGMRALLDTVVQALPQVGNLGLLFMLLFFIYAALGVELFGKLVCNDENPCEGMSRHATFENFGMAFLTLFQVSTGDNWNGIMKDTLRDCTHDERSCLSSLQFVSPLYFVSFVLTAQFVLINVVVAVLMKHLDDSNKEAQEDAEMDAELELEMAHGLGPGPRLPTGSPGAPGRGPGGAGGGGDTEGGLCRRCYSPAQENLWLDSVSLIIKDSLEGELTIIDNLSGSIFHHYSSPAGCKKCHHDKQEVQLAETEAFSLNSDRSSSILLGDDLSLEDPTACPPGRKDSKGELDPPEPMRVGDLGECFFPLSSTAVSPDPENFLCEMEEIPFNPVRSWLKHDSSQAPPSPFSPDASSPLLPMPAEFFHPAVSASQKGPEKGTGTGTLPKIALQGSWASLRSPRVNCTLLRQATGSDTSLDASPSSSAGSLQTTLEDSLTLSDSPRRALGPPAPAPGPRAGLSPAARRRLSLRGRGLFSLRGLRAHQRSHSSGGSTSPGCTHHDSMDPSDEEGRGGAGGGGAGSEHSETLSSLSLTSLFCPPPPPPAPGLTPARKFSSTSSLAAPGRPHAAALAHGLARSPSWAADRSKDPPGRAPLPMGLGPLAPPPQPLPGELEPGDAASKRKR

CCC1(C)CC(=O)NC1=O (stereo not drawn) [ethosuximide]
outcome of clinical trial for neuropathic pain (T-type Ca2+ channels): halted due to adverse events

GRKKRRQRRRPQEESNKEAREDAELDAEIELEMAQG [TAT-C3P]
CNS penetration following intraperitoneal injection ([1]; FRICT-ION mice): penetrates the central nervous system | side effects [2]: no major side effects

GRKKRRQRRRPQEESNKEAREDAELDAEIELEMAQGHHHHHH [His-tagged TAT-C3P]
His-tag bands in TG and medullary tissues ([1]; male FRICT-ION mice, tissues harvested four hours post-injection): Bands were detected

TAT-C3D: control peptide that does not block Cav3.3 channels, GRKKRRQRRRPQAVSSPARSGEPLHALSPRGTARSP (GRKKRRQRRRPQAVSSPARSGEPLHALSPRGTARSP; unkown; TAT-C3D (1)..(36))
Cav3.3 protein levels in the trigeminal ganglia (Cav3.3): strongly present | inhibition of Cav3.3 (Cav3.3 channels): does not inhibit Cav3.3
